Read-outs that look alike come from different tables or passages of the source.
Columns and labels:
[1] = tested on: normal rats and rats with bladder hypertrophy secondary to outlet obstruction; settings: intrathecally administered; cited from earlier work
[2] = tested on: α1a and α1d subtypes over the α1b subtype; settings: cited from earlier work
BPH patients = settings: large clinical trials of BPH patients; cited from earlier work
α1a-AR = target: T1, α1a-AR (Homo sapiens, UniProt P35348); experiment: α1-Adrenergic receptor radio-ligand binding assay, α1a subtype
T1 construct: expressed in transfected cells; host or cells: COS-7 cells (membranes)
T1 sequence (P35348 1-455 isoform P35348-4): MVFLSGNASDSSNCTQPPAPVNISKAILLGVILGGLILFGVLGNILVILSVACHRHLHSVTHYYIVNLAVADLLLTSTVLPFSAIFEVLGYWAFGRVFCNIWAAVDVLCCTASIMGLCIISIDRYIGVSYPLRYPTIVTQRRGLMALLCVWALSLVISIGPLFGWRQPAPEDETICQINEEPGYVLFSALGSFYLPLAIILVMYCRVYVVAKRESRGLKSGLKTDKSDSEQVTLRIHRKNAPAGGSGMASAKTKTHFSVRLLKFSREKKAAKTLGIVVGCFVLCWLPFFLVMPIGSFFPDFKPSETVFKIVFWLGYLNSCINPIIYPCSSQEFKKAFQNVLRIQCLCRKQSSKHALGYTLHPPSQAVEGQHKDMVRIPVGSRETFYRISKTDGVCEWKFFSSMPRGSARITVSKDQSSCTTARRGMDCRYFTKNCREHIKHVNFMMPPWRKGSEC
Description: (§1) Membranes were prepared from COS-7 cells (African Green monkey kidney SV40-transformed cells) that had been transfected with one of the three α1-AR subtypes (Genbank accession number for the α1a subtype: AF013261; Genbank accession number for the α1b subtype: NM000679; Genbank accession number for the α1d subtype: NM000678) using the following method: COS cells from ten 100 mm tissue culture plates were scraped into a 5 mL volume of TE (a mixture of 50 mM Tris-HCl, 5 mM EDTA, pH 7.4). […] The disrupted cells were centrifuged at 1000×g for 10 min at 4° C. Supernatants were centrifuged at 34,500×g for 20 min at 4° C. The membrane pellets were suspended in a 2 mL volume of TNE (a mixture of 50 mM Tris-HCl, 5 mM EDTA and 150 mM NaCl at pH 7.4). An aliquot of the membrane suspension was stored at −70° C. until use. The protein concentration was determined using the BioRad “DC” protein assay kit following membrane solubilization with Triton X-100.
(§2) Triplicate determinations of radio-ligand binding in the presence of increasing concentrations of testing compound were made. The reagents were added to 96-well polypropylene plate wells. […] The plate was incubated at rt for 1 hr. The contents of the wells were filtered through a glass filter (type C) (GF/C) membrane Unifilter plate (Packard Instruments) using the Packard Filtermate cell harvester. The filter plates were dried in a vacuum oven for 30 min at 40° C. 25 μL Microscint 20 liquid scintillation fluid (Packard Instuments) was added to each well. The radioactive content was analyzed in the TopCount microplate scintillation counter (Packard Instruments).

α1d-AR = target: T2, α1d-AR (Homo sapiens, UniProt P25100); experiment: α1-Adrenergic receptor radio-ligand binding assay, α1d subtype; settings: 125I-HEAT, membranes of COS-7 cells transfected with α1d subtype, rt 1 hr; read-out: Receptor Binding, Ki α1d-AR
T2 construct: expressed in transfected cells; host or cells: COS-7 cells (membranes)
T2 sequence (P25100 1-572): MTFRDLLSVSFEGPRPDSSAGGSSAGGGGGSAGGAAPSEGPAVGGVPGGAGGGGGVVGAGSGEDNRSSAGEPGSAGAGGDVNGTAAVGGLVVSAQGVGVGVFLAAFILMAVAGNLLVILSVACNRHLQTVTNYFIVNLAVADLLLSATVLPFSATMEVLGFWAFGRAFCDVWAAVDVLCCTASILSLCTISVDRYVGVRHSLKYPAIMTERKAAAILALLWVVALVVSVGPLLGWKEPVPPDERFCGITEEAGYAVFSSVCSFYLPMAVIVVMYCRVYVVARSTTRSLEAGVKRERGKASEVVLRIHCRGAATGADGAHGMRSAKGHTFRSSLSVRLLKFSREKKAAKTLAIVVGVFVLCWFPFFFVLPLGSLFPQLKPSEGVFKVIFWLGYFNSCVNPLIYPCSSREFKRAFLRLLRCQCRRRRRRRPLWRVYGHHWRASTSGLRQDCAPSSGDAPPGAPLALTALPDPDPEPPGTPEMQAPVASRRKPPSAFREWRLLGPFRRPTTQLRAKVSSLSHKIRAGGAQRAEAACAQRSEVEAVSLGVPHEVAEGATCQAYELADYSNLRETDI
Description: as §1, §2

α1b-AR = target: T3, α1b-AR (Homo sapiens, UniProt P35368); experiment: α1-Adrenergic receptor radio-ligand binding assay, α1b subtype; settings: 125I-HEAT, membranes of COS-7 cells transfected with α1b subtype, rt 1 hr; read-out: Receptor Binding, Ki α1b-AR
T3 construct: expressed in transfected cells; host or cells: COS-7 cells (membranes)
T3 sequence (P35368 1-520): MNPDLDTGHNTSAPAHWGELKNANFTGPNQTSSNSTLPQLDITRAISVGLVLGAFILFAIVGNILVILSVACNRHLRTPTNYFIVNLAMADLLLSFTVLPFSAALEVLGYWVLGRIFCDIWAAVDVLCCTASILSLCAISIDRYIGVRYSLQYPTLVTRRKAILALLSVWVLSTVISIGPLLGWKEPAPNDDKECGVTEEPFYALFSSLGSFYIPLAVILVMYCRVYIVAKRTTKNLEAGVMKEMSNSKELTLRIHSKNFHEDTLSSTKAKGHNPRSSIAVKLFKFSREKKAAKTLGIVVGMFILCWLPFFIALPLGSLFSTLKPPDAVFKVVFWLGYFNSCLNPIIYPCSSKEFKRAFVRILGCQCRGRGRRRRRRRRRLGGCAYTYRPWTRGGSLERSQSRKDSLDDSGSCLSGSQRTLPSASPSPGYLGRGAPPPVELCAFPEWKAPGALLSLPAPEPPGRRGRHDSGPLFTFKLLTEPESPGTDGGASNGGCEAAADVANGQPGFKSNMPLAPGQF
Description: as §1, §2

Row | SMILES | melting point [°C] | Ki (α1d-AR) [nM] | Ki (α1b-AR) [nM] | other results
1 | COc1cc2nc(N3CCN(C(=O)C4COc5ccccc5O4)CC3)nc(N)c2cc1OC (stereo not drawn) [doxazosin] |  |  |  | micturition pressure [1]: decrease in micturition pressure
2 | CCOc1ccccc1OCCN[C@H](C)Cc1ccc(OC)c(S(N)(=O)=O)c1 [Tamsulosin] |  |  |  | selectivity for the α1a and α1d subtypes over the α1b subtype [2]: about 15 fold; effect on obstructive and irritative symptoms (BPH patients): improvement in both obstructive and irritative symptoms; side effects seen (BPH patients): cardiovascular and erectile dysfunction side effects were seen
3 | COc1ccc(Cl)cc1S(=O)(=O)N[C@H]1CC[C@H](N2CCC(c3ccccc3OCC(F)(F)F)CC2)CC1 [Cpd 18, 5-chloro-2-methoxy-N-trans-(4-{4-[2-(2,2,2-trifluoro-ethoxy)-phenyl]-piperidin-1-yl}-cyclohexyl)-benzenesulfonamide] | 197 | 35.9 | 703 | Ki (α1a-AR): 10.4 nM
4 | O=S(=O)(N[C@H]1CC[C@@H](N2CCC(c3ccccc3OCC(F)(F)F)CC2)CC1)c1ccc(OC(F)F)cc1 [Cpd 25, 4-difluoromethoxy-N-cis-(4-{4-[2-(2,2,2-trifluoro-ethoxy)-phenyl]-piperidin-1-yl}-cyclohexyl)-benzenesulfonamide] | 196 | 2.7 | 76 | Ki (α1a-AR; 125I-HEAT, membranes of COS-7 cells transfected with α1a subtype, rt 1 hr, read-out: Receptor Binding, Ki α1a-AR): 5.4 nM
